Experimental data published in US8952024B2, “Herbicidal pyrimidone derivatives” (E I du Pont de Nemours and Company, priority 2009, dated 2015).

How the values were obtained:
Assay in all cases: Test D pre-/postemergence plant response
Format in all cases: in vivo
[1] = system: ragweed (common ragweed, Ambrosia elatior)
Summary of the method: (§1)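 Under greenhouse conditions for 14 to 21 days, plants treated pre- or postemergence with surfactant-formulated compound were compared by eye with untreated controls and scored 0–100 (100 = complete control; dash = no result).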

[2] = system: field bindweed (Convolvulus arvensis)
Summary of the method: as §1

[3] = system: mallow (common mallow, Malva sylvestris)
Summary of the method: as §1

[4] = system: naked crabgrass (Digitaria nuda)
Summary of the method: as §1

[5] = system: bluegrass (annual bluegrass, Poa annua)
Summary of the method: as §1

[6] = system: johnsongrass (Sorghum halepense)
Summary of the method: as §1

[7] = system: prickly sida (Sida spinosa)
Summary of the method: as §1

[8] = system: bermudagrass (Cynodon dactylon)
Summary of the method: as §1

[9] = system: green foxtail (Setaria viridis)
Summary of the method: as §1

[10] = system: groundsel (common groundsel, Senecio vulgaris); conditions: Postemergence
Summary of the method: as §1

[11] = system: sandbur (southern sandbur, Cenchrus echinatus)
Summary of the method: as §1

[12] = system: quackgrass (Elytrigia repens)
Summary of the method: as §1

[13] = system: Italian ryegrass (Lolium multiflorum)
Summary of the method: as §1

[14] = system: goosegrass (Eleusine indica)
Summary of the method: as §1

[15] = system: dayflower (Virginia (VA) dayflower, Commelina virginica)
Summary of the method: as §1

[16] = Postemergence, 31 g ai/ha, scale 0 to 100
[17] = Postemergence, 125 g ai/ha, scale 0 to 100 (0 no effect, 100 complete control)
[18] = Postemergence, 62 g ai/ha, scale 0 to 100 (0 no effect, 100 complete control)
[19] = Preemergence, 16 g ai/ha, scale 0 to 100, 0 no effect, 100 complete control
[20] = Preemergence, 31 g ai/ha, scale 0 to 100 (0 no effect, 100 complete control)
[21] = Preemergence, 125 g ai/ha, scale 0 to 100
[22] = Postemergence, 16 g ai/ha, scale 0 to 100
[23] = Preemergence, 62 g ai/ha, scale 0 to 100
[24] = Postemergence, 31 g ai/ha, scale 0 to 100 (0 no effect, 100 complete control)
[25] = Preemergence, rate not given, scale 0 to 100, 0 no effect, 100 complete control

O=C1CCCC(O)=C1C(=O)c1cnc(-c2ccccc2)n(C2CCCCC2)c1=O [Compound 128, 3-cyclohexyl-5-[(2-hydroxy-6-oxo-1-cyclohexen-1-yl)carbonyl]-2-phenyl-4(3H)-pyrimidinone]
Plant response rating, Ragweed [1, 16]: 75 | Plant response rating, Ragweed [1, 17]: 90 | Plant response rating, Ragweed [1, 18]: 90 | Plant response rating, Ragweed [1, 19]: 0 | Plant response rating, Ragweed [1, 20]: 75 | Plant response rating, Ragweed [1, 21]: 100 | Plant response rating, Field Bindweed [2, 22]: 50 | Plant response rating, Field Bindweed [2, 16]: 50 | Plant response rating, Field Bindweed [2, 17]: 65 | Plant response rating, Field Bindweed [2, 18]: 65 | Plant response rating, Field Bindweed [2, 19]: 0 | Plant response rating, Field Bindweed [2, 20]: 0 | Plant response rating, Field Bindweed [2, 23]: 35 | Plant response rating, Field Bindweed [2, 21]: 98 | Plant response rating, Mallow [3, 22]: 5 | Plant response rating, Mallow [3, 16]: 5 | Plant response rating, Mallow [3, 17]: 40 | Plant response rating, Mallow [3, 18]: 40 | Plant response rating, Mallow [3, 20]: 70 | Plant response rating, Mallow [3, 23]: 70 | Plant response rating, Mallow [3, 21]: 100 | Plant response rating, Crabgrass, Naked [4, 22]: 35 | Plant response rating, Crabgrass, Naked [4, 16]: 65 | Plant response rating, Crabgrass, Naked [4, 17]: 75 | Plant response rating, Crabgrass, Naked [4, 18]: 70 | Plant response rating, Crabgrass, Naked [4, 19]: 0 | Plant response rating, Crabgrass, Naked [4, 20]: 0 | Plant response rating, Crabgrass, Naked [4, 23]: 0 | Plant response rating, Crabgrass, Naked [4, 21]: 75 | Plant response rating, Bluegrass [5, 22]: 0 | Plant response rating, Bluegrass [5, 24]: 0 | Plant response rating, Bluegrass [5, 17]: 0 | Plant response rating, Bluegrass [5, 18]: 0 | Plant response rating, Bluegrass [5, 19]: 0 | Plant response rating, Bluegrass [5, 20]: 0 | Plant response rating, Bluegrass [5, 23]: 25 | Plant response rating, Bluegrass [5, 21]: 25 | Plant response rating, Johnsongrass [6, 22]: 35 | Plant response rating, Johnsongrass [6, 16]: 40 | Plant response rating, Johnsongrass [6, 17]: 65 | Plant response rating, Johnsongrass [6, 18]: 50 | Plant response rating, Johnsongrass [6, 19]: 0 | Plant response rating, Johnsongrass [6, 20]: 0 | Plant response rating, Johnsongrass [6, 23]: 15 | Plant response rating, Johnsongrass [6, 21]: 65 | Plant response rating, Prickly Sida [7, 22]: 50 | Plant response rating, Prickly Sida [7, 16]: 60 | Plant response rating, Prickly Sida [7, 17]: 80 | Plant response rating, Prickly Sida [7, 18]: 65 | Plant response rating, Prickly Sida [7, 19]: 0 | Plant response rating, Prickly Sida [7, 20]: 0 | Plant response rating, Prickly Sida [7, 23]: 25 | Plant response rating, Prickly Sida [7, 21]: 30 | Plant response rating, Bermudagrass [8, 22]: 70 | Plant response rating, Bermudagrass [8, 24]: 70 | Plant response rating, Bermudagrass [8, 17]: 90 | Plant response rating, Bermudagrass [8, 18]: 80 | Plant response rating, Bermudagrass [8, 19]: 0 | Plant response rating, Bermudagrass [8, 20]: 0 | Plant response rating, Bermudagrass [8, 23]: 65 | Plant response rating, Bermudagrass [8, 21]: 75 | Plant response rating, Foxtail, Green [9, 22]: 25 | Plant response rating, Foxtail, Green [9, 16]: 40 | Plant response rating, Foxtail, Green [9, 17]: 70 | Plant response rating, Foxtail, Green [9, 18]: 65 | Plant response rating, Foxtail, Green [9, 19]: 0 | Plant response rating, Foxtail, Green [9, 20]: 0 | Plant response rating, Foxtail, Green [9, 23]: 0 | Plant response rating, Foxtail, Green [9, 21]: 0 | Plant response rating, Groundsel ([10]; 16 g ai/ha, scale 0 to 100): 100 | Plant response rating, Groundsel ([10]; 31 g ai/ha, scale 0 to 100): 100 | Plant response rating, Groundsel ([10]; 125 g ai/ha, scale 0 to 100 (0 no effect, 100 complete control)): 100 | Plant response rating, Groundsel ([10]; 62 g ai/ha, scale 0 to 100 (0 no effect, 100 complete control)): 100 | Plant response rating, Sandbur [11, 22]: 5 | Plant response rating, Sandbur [11, 16]: 5 | Plant response rating, Sandbur [11, 17]: 35 | Plant response rating, Sandbur [11, 18]: 5 | Plant response rating, Sandbur [11, 19]: 0 | Plant response rating, Sandbur [11, 20]: 0 | Plant response rating, Sandbur [11, 21]: 20 | Plant response rating, Sandbur [11, 25]: 20 | Plant response rating, Quackgrass [12, 22]: 0 | Plant response rating, Quackgrass [12, 16]: 0 | Plant response rating, Quackgrass [12, 17]: 5 | Plant response rating, Quackgrass [12, 18]: 0 | Plant response rating, Quackgrass [12, 19]: 0 | Plant response rating, Quackgrass [12, 20]: 0 | Plant response rating, Quackgrass [12, 21]: 0 | Plant response rating, Ryegrass, Italian [13, 22]: 0 | Plant response rating, Ryegrass, Italian [13, 16]: 0 | Plant response rating, Ryegrass, Italian [13, 17]: 5 | Plant response rating, Ryegrass, Italian [13, 18]: 0 | Plant response rating, Ryegrass, Italian [13, 19]: 0 | Plant response rating, Ryegrass, Italian [13, 20]: 0 | Plant response rating, Ryegrass, Italian [13, 21]: 0 | Plant response rating, Ryegrass, Italian [13, 25]: 0 | Plant response rating, Goosegrass [14, 22]: 35 | Plant response rating, Goosegrass [14, 16]: 40 | Plant response rating, Goosegrass [14, 17]: 70 | Plant response rating, Goosegrass [14, 18]: 65 | Plant response rating, Goosegrass [14, 19]: 0 | Plant response rating, Goosegrass [14, 20]: 5 | Plant response rating, Goosegrass [14, 23]: 65 | Plant response rating, Goosegrass [14, 21]: 90 | Plant response rating, Dayflower, VA [15, 22]: 50 | Plant response rating, Dayflower, VA [15, 16]: 50 | Plant response rating, Dayflower, VA [15, 17]: 70 | Plant response rating, Dayflower, VA [15, 18]: 60 | Plant response rating, Dayflower, VA [15, 20]: 0 | Plant response rating, Dayflower, VA [15, 23]: 10 | Plant response rating, Dayflower, VA [15, 21]: 25
